Values quoted from earlier work, collected in EP0848611B1, “TACRINE PATCH” (HEXAL AG, priority 1995, dated 1997).

Tests used:
[1] = in vivo

Nc1c2c(nc3ccccc13)CCCC2 [Tacrin, 1,2,3,4-Tetrahydro-9-acridinamin]
Anstieg der ALT-Werte (Alaninaminotransferase) (patients): ≤ 20 fachen der oberen normalen Grenze
hepatotoxischer Effekt tritt auf (share of patients): etwa der Hälfte der Patienten
Bioverfügbarkeit ([1]; human): 10-30%
Halbwertszeit ([1]; human): 1,5-3,5 h
therapeutischer Blutspiegel [1]: 5 to 70 ng/mL
